Assay results: paper PMC12741935 (Alzheimer's & Dementia, 2025)

Columns and labels:
NfL, Aβ40, Aβ42 = assay: Plasma NfL and plasma/brain Aβ40, Aβ42 ELISA in chronically treated 5xFAD mice; assay type: in vivo; conditions: chronic 100 mg/kg BID PO
Description: V-PLEX Aβ Peptide Panel 1 (4G8) Kit (Meso Scale Diagnostics, LLC #[…]) was used for Aβ40/Aβ42 detection and S-PLEX Neurofilament L Kit (Meso Scale Diagnostics, LLC # […]) was used for NfL analysis, according to the manufacturer's protocols. […] The supernatant recovered was the DEA soluble fraction containing the soluble Aβ isoforms. […] For ELISA, the DEA-soluble fraction was diluted at 10 times and 40 times and the insoluble fraction was diluted at 40 times and 300 times. The assay plates were read by MESO […] plate reader and analyzed using Discovery Workbench Software (MesoScale Discovery). All samples were run in duplicate and averaged for analysis. Brain concentrations of the soluble and insoluble Aβ were normalized to total protein. All samples from a single plasma collection timepoint were run together on the appropriate MSD plate with the kit provided calibration standards.

[1] = In vivo PK in CD-1 mice, plasma and brain by LC-MS/MS; conditions: for Mean concentration in brain: ± SD, n=3; for AUC(0-inf): AUCInf
Description: Initial in vivo PK studies to confirm oral bioavailability and brain exposure were conducted at Pharmaron (Beijing, China) in non‐fasted male CD‐1 mice (6–8 weeks of age; sourced from Vital River). […] The dose volume was 10 mL/kg.
Next, we evaluated brain and plasma PK of 10 mg/kg (1 hour pre, IP, n = 3). Experiments then were conducted to confirm and extend initial PK data and evaluate brain and plasma levels at doses of 1, 10, and 100 mg/kg after oral administration at 1, 3, and 8 hours post dose (n = 3 per dose per timepoint).
Serial blood was collected via the dorsal metatarsal vein into ethylenediaminetetraacetic acid‐K2 coated tubes and centrifuged at 4°C x 4000 g for 5 minutes to obtain plasma that was aliquoted and stored at −80°C until analysis. For terminal studies, blood was collected via cardiac puncture under isoflurane anesthesia. Whole brain was homogenized at a ratio of 1:3 with PBS (W:V, 1:3).
For sample analysis liquid chromatography tandem mass spectrometry (LC‐MS/MS) was conducted using an AB Sciex Triple Quad 5500 LC/MS/MS instrument. Briefly, the desired serial concentrations of working solutions were achieved by diluting stock solution of analyte with 50% acetonitrile in water solution. Ten µL of working solutions (0.5, 1, 2, 5, 10, 50, 100, 500, and 1000 ng/mL) were added to 10 µL of the blank CD1 mouse plasma/brain homogenate to achieve calibration standards of 0.5 to 1000 ng/mL (0.5, 1, 2, 5, 10, 50, 100, 500, and 1000 ng/mL) in a total volume of 20 µL. Five quality control (QC) samples at 1 ng/mL, 2 ng/mL, 5 ng/mL, 50 ng/mL, and 800 ng/mL for plasma/brain homogenate were prepared independently of those used for the calibration curves. These QC samples were prepared on the day of analysis in the same way as calibration standards. Twenty µL standards, 20 µL QC samples, and 20 µL unknown samples (10 µL plasma/brain homogenate with 10 µL blank solution) were added to 200 µL of acetonitrile containing internal standard (IS) mixture for precipitating protein, respectively. The samples were vortexed for 30 seconds followed by centrifugation at 4°C x 2600 g for 15 minutes. The supernatant was diluted at a ratio of 1:2 with H2O (V/V, 1:2), 5 µL of diluted supernatant was injected into the LC‐MS/MS system for quantitative analysis. The lower limit of quantification (LLOQ) was 0.5 ng/mL for plasma and 1 ng/mL for brain. PK parameters were estimated by non‐compartmental model analysis using WinNonlin 8.3.

[2] = male, CD-1, mouse, brain, oral, 10 mg/kg
[3] = male, CD-1, mouse, brain, oral, 100 mg/kg
[4] = male, CD-1, mouse, brain, po, 10 mg/kg, 10 mg/kg PO
[5] = male, CD-1, mouse, brain, po, 100 mg/kg, 100 mg/kg PO
[6] = male, CD-1, mouse, plasma, ip, 10 mg/kg, 10 mg/kg IP, sampling 0.5, 1, 3, 5 h
[7] = male, CD-1, mouse, plasma, po, 1 mg/kg, 1 mg/kg PO
[8] = male, CD-1, mouse, plasma, po, 10 mg/kg, 10 mg/kg PO, sampling 0.5, 1, 3, 5 h
[9] = male, CD-1, mouse, plasma, po, 10 mg/kg, 10 mg/kg PO, sampling 1, 3, 8 h
[10] = male, CD-1, mouse, plasma, po, 100 mg/kg, 100 mg/kg PO
[11] = plasma, 10 mg/kg IP, sampling 0.5, 1, 3, 5 h
[12] = plasma, 10 mg/kg PO, sampling 0.5, 1, 3, 5 h
[13] = plasma, 10 mg/kg PO, sampling 1, 3, 8 h

CC(C)NC(=O)N1CC[C@H](NC2=Nc3cc(F)ccc3N(CC(F)F)c3ccc(Cl)cc32)C1 [NVS‐PAK1‐1, (S)‐3‐([2‐chloro‐5‐(2,2‐difluoroethyl)‐8‐fluoro‐5H‐dibenzo[b,e][1,4]diazepin‐11‐yl]amino)‐N‐isopropylpyrrolidine‐1‐carboxamide]
brain amyloid accumulation, soluble (DEA) and insoluble (FA) fractions (NfL, Aβ40, Aβ42; 5xFAD): mirrored Aβ plasma values
plasma NfL (NfL, Aβ40, Aβ42; young, aged, male, or female 5xFAD cohorts): did not significantly lower
Mean concentration in brain ([1]; 1 mg/kg PO, 1 h post dose): BLOQ
Mean concentration in brain ([1]; 1 mg/kg PO, 3 h post dose): BLOQ
Mean concentration in brain ([1]; 1 mg/kg PO, 8 h post dose): BLOQ
concentration in brain ([1]; 1 mg/kg PO, at 1, 3 and 8 hours post dose): < 1 ng/mL
Mean concentration in brain ([1]; 10 mg/kg PO, 8 h post dose): BLOQ
Mean concentration in brain ([1]; 100 mg/kg PO, 8 h post dose): detectable
AUC_%Extrap_obs ([1]; brain, 10 mg/kg PO): 15.3%
AUClast/D ([1]; brain, 10 mg/kg PO): 5.74 h·ng/mL per mg/kg
AUC_%Extrap_obs ([1]; brain, 100 mg/kg PO): 1.34%
AUClast/D ([1]; brain, 100 mg/kg PO): 13.8 h·ng/mL per mg/kg
concentration at 1 h ([1]; male, CD-1, mouse, brain, intraperitoneal, 10 mg/kg): 112 ± 14 ng/g
concentration at 1 h [1, 2]: 33.2 ± 13 ng/g
concentration at 3 h [1, 2]: 7.62 ± 1.16 ng/g
concentration at 1 h [1, 3]: 759 ± 379 ng/g
concentration at 3 h [1, 3]: 61.6 ± 3.5 ng/g
concentration at 8 h [1, 3]: 14.3 ± 5.4 ng/g
AUC(0-inf) [1, 4]: 67.8 ng·h/mL
AUC(0-t) ([1]; male, CD-1, mouse, brain, po, 10 mg/kg, AUClast, 10 mg/kg PO): 57.4 ng·h/mL
Cmax [1, 4]: 33.2 ng/mL
MRT inf ([1]; male, CD-1, mouse, brain, po, 10 mg/kg, MRTInf_obs, 10 mg/kg PO): 1.74 h
half-life ([1]; male, CD-1, mouse, brain, po, 10 mg/kg, T1/2, brain, 10 mg/kg PO): 56.5 min
Tmax [1, 4]: 1 h
AUC(0-inf) [1, 5]: 1400 ng·h/mL
AUC(0-t) ([1]; male, CD-1, mouse, brain, po, 100 mg/kg, AUClast, 100 mg/kg PO): 1380 ng·h/mL
Cmax [1, 5]: 759 ng/mL
half-life ([1]; male, CD-1, mouse, brain, po, 100 mg/kg, T1/2, brain, 100 mg/kg PO): 73.8 min
Tmax [1, 5]: 1 h
Kp at 1 h ([1]; male, CD-1, mouse, brain/plasma, ip, 10 mg/kg): 0.25
Kp ([1]; male, CD-1, mouse, brain/plasma, po, 10 mg/kg): 0.21
Kp ([1]; male, CD-1, mouse, brain/plasma, po, 100 mg/kg): 0.302
AUC(0-t) ([1]; male, CD-1, mouse, in vivo, po, 1 mg/kg): 27.2 ng·h/mL
MRT inf ([1]; male, CD-1, mouse, in vivo, po, 100 mg/kg): 1.56 h
concentration at 1 h ([1]; male, CD-1, mouse, plasma, intraperitoneal, 10 mg/kg): 448 ± 65 ng/mL
AUC(0-inf) [1, 6]: 1170 ng·h/mL
AUC(0-t) ([1]; male, CD-1, mouse, plasma, ip, 10 mg/kg, AUClast, 10 mg/kg IP, sampling 0.5, 1, 3, 5 h): 1150 ng·h/mL
Cmax [1, 6]: 878 ng/mL
MRT inf ([1]; male, CD-1, mouse, plasma, ip, 10 mg/kg, MRTInf_obs, 10 mg/kg IP, sampling 0.5, 1, 3, 5 h): 1.1 h
half-life ([1]; male, CD-1, mouse, plasma, ip, 10 mg/kg, T1/2, plasma, 10 mg/kg IP, sampling 0.5, 1, 3, 5 h): 48.8 min
Tmax [1, 6]: 0.5 h
AUC(0-inf) [1, 7]: 31.6 ng·h/mL
Cmax [1, 7]: 8.1 ng/mL
MRT inf ([1]; male, CD-1, mouse, plasma, po, 1 mg/kg, MRTInf_obs, 1 mg/kg PO): 3.92 h
half-life ([1]; male, CD-1, mouse, plasma, po, 1 mg/kg, T1/2, plasma, 1 mg/kg PO): 157 min
Tmax [1, 7]: 1 h
AUC(0-inf) [1, 8]: 252 ng·h/mL
AUC(0-inf) [1, 9]: 280 ng·h/mL
AUC(0-t) ([1]; male, CD-1, mouse, plasma, po, 10 mg/kg, AUClast, 10 mg/kg PO, sampling 0.5, 1, 3, 5 h): 223 ng·h/mL
AUC(0-t) ([1]; male, CD-1, mouse, plasma, po, 10 mg/kg, AUClast, 10 mg/kg PO, sampling 1, 3, 8 h): 274 ng·h/mL
Cmax [1, 8]: 130 ng/mL
Cmax [1, 9]: 112 ng/mL
MRT inf ([1]; male, CD-1, mouse, plasma, po, 10 mg/kg, MRTInf_obs, 10 mg/kg PO, sampling 0.5, 1, 3, 5 h): 2.19 h
MRT inf ([1]; male, CD-1, mouse, plasma, po, 10 mg/kg, MRTInf_obs, 10 mg/kg PO, sampling 1, 3, 8 h): 2.1 h
half-life ([1]; male, CD-1, mouse, plasma, po, 10 mg/kg, T1/2, plasma, 10 mg/kg PO, sampling 0.5, 1, 3, 5 h): 93.6 min
half-life ([1]; male, CD-1, mouse, plasma, po, 10 mg/kg, T1/2, plasma, 10 mg/kg PO, sampling 1, 3, 8 h): 84 min
Tmax [1, 8]: 0.5 h
Tmax [1, 9]: 1 h
AUC(0-inf) [1, 10]: 4720 ng·h/mL
AUC(0-t) ([1]; male, CD-1, mouse, plasma, po, 100 mg/kg, AUClast, 100 mg/kg PO): 4570 ng·h/mL
Cmax [1, 10]: 2330 ng/mL
MRT inf ([1]; male, CD-1, mouse, plasma, po, 100 mg/kg, MRTInf_obs, 100 mg/kg PO): 1.91 h
half-life ([1]; male, CD-1, mouse, plasma, po, 100 mg/kg, T1/2, plasma, 100 mg/kg PO): 90 min
Tmax [1, 10]: 1 h
AUC_%Extrap_obs ([1]; plasma, 1 mg/kg PO): 14.0%
AUClast/D ([1]; plasma, 1 mg/kg PO): 27.2 h·ng/mL per mg/kg
AUC_%Extrap_obs [1, 11]: 1.62%
AUClast/D [1, 11]: 115 h·ng/mL per mg/kg
AUC_%Extrap_obs [1, 12]: 11.3%
AUClast/D [1, 12]: 22.3 h·ng/mL per mg/kg
AUC_%Extrap_obs [1, 13]: 2.29%
AUClast/D [1, 13]: 27.4 h·ng/mL per mg/kg
AUC_%Extrap_obs ([1]; plasma, 100 mg/kg PO): 3.08%
AUClast/D ([1]; plasma, 100 mg/kg PO): 45.7 h·ng/mL per mg/kg
